# In ChEMBL document CHEMBL1125529, “NMDA antagonist activity of (+/-)-(2SR,4RS)-4-(1H-tetrazol-5-ylmethyl)piperidine-2-carboxylic acid resides with the (-)-2R,4S-isomer” (J Med Chem, 1992):
# Legend:
# Glutamate NMDA receptor [1] = assay: Compound was tested for the antagonistic activity against depolarizations due to NMDA using rat cortical slice preparation; type: functional
# Glutamate NMDA receptor [2] = assay: Ability to inhibit [3H]-CGS- 19755 binding to NMDA receptor; type: protein-complex assay
IC50 (Glutamate NMDA receptor [1]) [nM],IC50 (Glutamate NMDA receptor [2]) [nM],SMILES
4200,107,O=C(O)[C@H]1C[C@@H](Cc2nnn[nH]2)CCN1 (racemic)
1900,67,O=C(O)[C@H]1C[C@@H](Cc2nnn[nH]2)CCN1 (stereo in doubt)
39100,2390,O=C(O)[C@H]1C[C@@H](Cc2nnn[nH]2)CCN1 (stereo in doubt; (+)-1)
